{"source": "patent US20080098491A1", "about": "“MOUSE MODELS TO STUDY CACHEXIA” (ZOLTAN LABORATORIES LLC, priority 2006, published 2008)", "test_system": "MXT mouse mammary tumor", "assay": "Cisplatin-treated MXT mouse mammary tumor model, PALP and TF (Example 9, Experiment 1)", "assay_type": "in vivo", "conditions": "for Body weight (total weight minus tumor weight) / Total weight / Tumor weight: every second day from day 7 (7-times): cisplatin 3-mg/kg i.p., purified PALP 16, commercial PALP 60, TF 14 mg/kg s.c.", "excerpt": "The B16 mouse melanoma and MXT mouse mammary tumors were developed in first generation hybrid BDF1 (C57 B1 female×DBA/2 male) adult female mice kept at specified pathogen free (SPF) hygienic level. These models were chosen for these experiments because these mice have the complete immune system, and both tumors grow very rapidly. To develop the tumors, B16 and MXT tumor tissue fragments of about 0.1-cm^3 were surgically implanted subcutaneously into the intrascapular region to develop the tumors. Each tumor fragment contained about 1-1.5×10^6 cells. The animals were kept in macrolon cages on ventilated rack at 22-24° C. (50-60% humidity) with lighting regimen of 12/12 h light/dark. The animals had free access to tap water and were fed with sterilized standard diet (Charles River VRF1, Germany) ad libitum. The animals were taken care of according to the “Guiding Principle for the care and use of Animals” based upon the Helsinki declaration and they were approved by the local ethical committee.\nIn case of both tumor models the tumor size was usually in the range of 0.2 to 0.5-g when treatments started 7-11 days after tumor implantation; the mice were selected so that in the same treatment group the difference in tumor size was no greater than 0.1 gram. In some experiments, the test proteins were suspended in physiological saline and injected in 50-μl volume subcutaneously in the vicinity of tumor (within 1-cm of tumor margin). In other experiments, the test proteins were dispersed in Vaselinum cholesteratum and used topically; 150-mg cream was applied on the tumor and the vicinity of tumor area (with about 0.5-cm of the tumor margin). The tumor volume was determined by using calipers; this technique is well known to one having ordinary skill in the art. Tumor volume was calculated according to the generally accepted formula: V=a^2×b×7r/6, where “a” and “b” mean the shortest and longest diameter, respectively, of the measured tumor.\nExperiment 1. The mouse MXT mammary tumor was developed as described in Example 3. In the first group, animals remained untreated during the whole observation period. In the second group, starting on the 7th day after tumor implantation, mice were intraperitoneally (i.p.) administered 3-mg per 1-kg total weight of cisplatin 7-times every second day. In the third group, starting on the 7th day after tumor implantation, mice were simultaneously administered 3-mg per 1-kg of cisplatin i.p. and 16-mg per 1-kg of purified PALP s.c. In the fourth group, starting on the 7th day after tumor implantation, mice were simultaneously administered 3-mg per 1-kg of cisplatin i.p. and 60-mg per 1-kg of commercial PALP s.c. In the fifth group, starting on the 7th day after tumor implantation, mice were simultaneously administered 3-mg per 1-kg of cisplatin i.p. and 14-mg per 1-kg of commercial TF (T 3309 in the Sigma catalog) s.c. Each treatment was performed 7-times on every second day. Each group included 7 animals. The mean values for total weight, tumor weight and body weight (the difference between total and tumor weight) are shown in TABLE 6.", "key": {"[1]": {"conditions": "day 7 after tumor transplantation"}, "[2]": {"conditions": "day 11 after tumor transplantation"}, "[3]": {"conditions": "day 14 after tumor transplantation"}, "[4]": {"conditions": "day 16 after tumor transplantation"}, "[5]": {"conditions": "day 18 after tumor transplantation"}, "[6]": {"conditions": "day 21 after tumor transplantation"}}}
{"smiles": "N.N.[Cl][Pt][Cl]", "note": "[Cisplatin, cisplatin]", "values": [{"measurement": "Body weight (total weight minus tumor weight)", "setting": "[1]", "result": 22.45, "unit": "g"}, {"measurement": "Total weight", "setting": "[1]", "result": 22.70, "unit": "g"}, {"measurement": "Tumor weight", "setting": "[1]", "result": 0.25, "unit": "g"}, {"measurement": "Body weight (total weight minus tumor weight)", "setting": "[2]", "result": 22.10, "unit": "g"}, {"measurement": "Total weight", "setting": "[2]", "result": 23.10, "unit": "g"}, {"measurement": "Tumor weight", "setting": "[2]", "result": 1.00, "unit": "g"}, {"measurement": "Body weight (total weight minus tumor weight)", "setting": "[3]", "result": 19.50, "unit": "g"}, {"measurement": "Total weight", "setting": "[3]", "result": 21.70, "unit": "g"}, {"measurement": "Tumor weight", "setting": "[3]", "result": 2.20, "unit": "g"}, {"measurement": "Body weight (total weight minus tumor weight)", "setting": "[4]", "result": 16.90, "unit": "g"}, {"measurement": "Total weight", "setting": "[4]", "result": 20.10, "unit": "g"}, {"measurement": "Tumor weight", "setting": "[4]", "result": 3.20, "unit": "g"}, {"measurement": "Body weight (total weight minus tumor weight)", "setting": "[5]", "result": 16.30, "unit": "g"}, {"measurement": "Total weight", "setting": "[5]", "result": 20.10, "unit": "g"}, {"measurement": "Tumor weight", "setting": "[5]", "result": 3.80, "unit": "g"}, {"measurement": "Body weight (total weight minus tumor weight)", "setting": "[6]", "result": 15.10, "unit": "g"}, {"measurement": "Total weight", "setting": "[6]", "result": 19.20, "unit": "g"}, {"measurement": "Tumor weight", "setting": "[6]", "result": 4.10, "unit": "g"}, {"measurement": "Decrease in body weight", "setting": "from day 11 to day 23, cisplatin 3-mg/kg i.p. every second day", "result": "~33", "unit": "%"}]}
